Assays:
[1] = tested on: normal NK cells expanded with K562-aAPC; assay: drug sensitivity score (DSS) (DSS units); higher = more sensitive; extreme values may be limits of the assay; details: 72 h; IL-2 2.5 ng/mL
Procedure: (§1)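 Drug sensitivity and resistance testing on K562-aAPC-expanded normal NK cells: 5 concentrations (10-fold steps over a 10,000-fold range), 72 h at 37 °C, viability by CellTiter-Glo normalised to DMSO and benzethonium chloride controls; DSS from the fitted curve.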

[2] = tested on: normal primary NK cells, pool 1 (3 donors), resting (IL-2 0 ng/mL); assay: percent inhibition of viability; higher = more inhibition; details: 72 h
[3] = tested on: DERL-7 (IL-2 2.5 ng/mL); assay: as above; details: 72 h
[4] = tested on: normal primary NK cells, pool 3 (3 donors) (IL-2 2.5 ng/mL); assay: as above; details: 72 h
[5] = tested on: normal primary NK cells, pool 2 (3 donors) (IL-2 2.5 ng/mL); assay: as above; details: 72 h
[6] = tested on: NKL (IL-2 2.5 ng/mL); assay: as above; details: 72 h
[7] = tested on: KHYG-1 (IL-2 2.5 ng/mL); assay: as above; details: 72 h
[8] = tested on: normal primary NK cells, pool 1 (3 donors) (IL-2 2.5 ng/mL); assay: as above; details: 72 h
[9] = tested on: IMC-1 (IL-2 20 ng/mL); assay: as above; details: 72 h
[10] = tested on: YT (IL-2 2.5 ng/mL); assay: as above; details: 72 h
[11] = tested on: SNK-6 (IL-2 2.5 ng/mL); assay: as above; details: 72 h
[12] = tested on: NK-YS (IL-2 2.5 ng/mL); assay: as above; details: 72 h
[13] = tested on: KAI3 (IL-2 2.5 ng/mL); assay: as above; details: 72 h
[14] = tested on: NK-92 (IL-2 2.5 ng/mL); assay: as above; details: 72 h
[15] = tested on: normal primary NK cells, pool 1 (3 donors), resting (IL-2 0 ng/mL); assay: drug sensitivity score (DSS) (DSS units); higher = more sensitive; extreme values may be limits of the assay; details: 72 h
[16] = tested on: DERL-7 (IL-2 2.5 ng/mL); assay: as above; details: 72 h
[17] = tested on: normal primary NK cells, pool 3 (3 donors) (IL-2 2.5 ng/mL); assay: as above; details: 72 h
[18] = tested on: normal primary NK cells, pool 2 (3 donors) (IL-2 2.5 ng/mL); assay: as above; details: 72 h
[19] = tested on: NKL (IL-2 2.5 ng/mL); assay: as above; details: 72 h
[20] = tested on: KHYG-1 (IL-2 2.5 ng/mL); assay: as above; details: 72 h
[21] = tested on: normal primary NK cells, pool 1 (3 donors) (IL-2 2.5 ng/mL); assay: as above; details: 72 h
[22] = tested on: IMC-1 (IL-2 20 ng/mL); assay: as above; details: 72 h
[23] = tested on: YT (IL-2 2.5 ng/mL); assay: as above; details: 72 h
[24] = tested on: SNK-6 (IL-2 2.5 ng/mL); assay: as above; details: 72 h
[25] = tested on: NK-YS (IL-2 2.5 ng/mL); assay: as above; details: 72 h
[26] = tested on: KAI3 (IL-2 2.5 ng/mL); assay: as above; details: 72 h
[27] = tested on: NK-92 (IL-2 2.5 ng/mL); assay: as above; details: 72 h
[28] = tested on: normal NK cells expanded with K562-aAPC; assay: percent inhibition of viability; higher = more inhibition; details: 72 h, IL-2 2.5 ng/mL
Procedure: as §1

C=CCN(/C=C1/C(=O)O[C@H](COC)[C@@]2(C)C1=C(O)C(=O)C1=C2[C@H](OC(C)=O)C[C@]2(C)C(=O)CC[C@@H]12)CC=C [Sonolisib] (max concentration tested 10000 nM)
Details	drug sensitivity score
[1]	1.91
[15]	5.24
[16]	1.49
[17]	2.06
[18]	3.83
[19]	3.66
[20]	0.5
[21]	5.59
[22]	0
[23]	1.45
[24]	0.79
[25]	2.85
[26]	2.98
[27]	4.58

percent inhibition of viability [%]
Details	1 nM	10 nM	100 nM	1000 nM	10000 nM
[2]	-7.82	8.6	11.1	16.4	59.7
[3]	4.44	0.05	7.66	7.97	25.7
[4]	-11.6	9.95	14.7	4.05	31.2
[5]	-5.83	0.64	8.59	17.3	40.2
[6]	-7.87	-4.63	-1.36	21.9	28.6
[7]	-3.26	-9.75	-5.87	-0.67	19.3
[8]	-5.92	11.5	7.17	23.3	57
[9]	-9.13	-2.03	-1.28	-0.72	6.3
[10]	-3.75	-4.21	-0.91	9.17	19.1
[11]	-13.7	-20.8	-21.5	-12.3	28.8
[12]	-0.83	-2.4	-0.43	13.8	28.2
[13]	-2.28	-8.79	-2.59	6.95	37.8
[14]	-0.51	-6.14	4.9	21.8	43.3
[28]	-4.81	-6.86	-3.23	3.22	31.4

Nc1nc(Nc2ccc3c(c2)CC[C@@H](N2CCCC2)CC3)nn1-c1cc2c(nn1)-c1ccccc1CCC2 [BGB324] (max concentration tested 10000 nM)
Details	drug sensitivity score
[1]	8.94
[15]	16
[16]	14.7
[17]	9.12
[18]	11.3
[19]	14.8
[20]	12.5
[21]	13.2
[22]	5.23
[23]	7.38
[24]	10.3
[25]	7.94
[26]	11.2
[27]	11.6

percent inhibition of viability [%]
Details	1 nM	10 nM	100 nM	1000 nM	10000 nM
[2]	7.14	3.63	5.02	83.6	99.8
[3]	1.87	-0.37	13.9	68	101
[4]	-9.08	-10.5	-10.5	23.1	99.8
[5]	-7.98	-0.57	-5.73	45.8	100
[6]	6.99	-6.74	6.47	73.7	102
[7]	-2.69	-1.76	3.04	59	103
[8]	-3.33	-4.6	-5.97	66.2	99.8
[9]	-1.43	-0.15	0.68	-4.19	99.9
[10]	-0.88	-5.6	-1.23	11	101
[11]	12.8	12.3	-18.1	34.5	99.7
[12]	-2.01	-2.03	0.13	14.3	101
[13]	-3.31	-2.86	2.2	43.9	101
[14]	-4.37	-8.81	-0.92	49	102
[28]	-3.36	-11.5	-1.93	21.5	99.9

N#CCNC(=O)c1ccc(-c2ccnc(Nc3ccc(N4CCOCC4)cc3)n2)cc1 [Momelotinib] (max concentration tested 10000 nM)
Details	drug sensitivity score
[1]	15.6
[15]	1.97
[16]	16
[17]	10.2
[18]	11.5
[19]	18.1
[20]	21.2
[21]	14.8
[22]	8.56
[23]	9.23
[24]	11.5
[25]	12.2
[26]	17.1
[27]	12.3

percent inhibition of viability [%]
Details	1 nM	10 nM	100 nM	1000 nM	10000 nM
[2]	-6.11	-14.1	3.47	15.8	14.3
[3]	3.73	4.25	15.9	75.2	100
[4]	0.52	-6.13	-0.97	43.2	86.9
[5]	-6.15	-4.46	2.38	54.3	91.2
[6]	-4.28	-2.44	28.4	79.3	88
[7]	-1.96	-4.26	19.9	103	102
[8]	-14.4	-4.36	20.3	65.5	70.3
[9]	-3.83	-4.31	-6.56	18.6	101
[10]	-0.29	-0.45	5.77	38.1	86.3
[11]	23.1	10.8	3.39	52.2	96
[12]	-3.04	-5.27	11.4	54.4	98.9
[13]	5.39	5.27	21.2	79.2	85.8
[14]	-4.89	7.75	12.7	57.3	73.3
[28]	-1.5	4.78	16.6	72	96.9

CCc1cnn2c(NCc3ccc[n+]([O-])c3)cc(N3CCCC[C@H]3CCO)nc12 [Dinaciclib] (max concentration tested 1000 nM)
Details	drug sensitivity score
[1]	22.4
[15]	20
[16]	22.5
[17]	26.6
[18]	28.8
[19]	28.8
[20]	23.6
[21]	23.2
[22]	23.7
[23]	29.8
[24]	23.7
[25]	28.3
[26]	24.6
[27]	25.9

percent inhibition of viability [%]
Details	0.1 nM	1 nM	10 nM	100 nM	1000 nM
[2]	-4.86	1	21.3	91.6	92.6
[3]	3.44	0.2	31.4	100	101
[4]	-4.86	2.55	72	99.3	100
[5]	-6.55	2.06	90.3	97.1	94.6
[6]	4.95	3.07	88.7	109	112
[7]	-3.45	-3.48	42.5	109	112
[8]	-4.8	3.36	45.1	98.6	98.7
[9]	-1.04	-1.9	44	99.7	102
[10]	-2.44	2.09	93.8	108	111
[11]	-7.12	-37	81.4	47.2	48.2
[12]	-6.76	-1.49	87.6	104	109
[13]	5.48	7.7	54.5	108	110
[14]	-2.1	2.09	67.9	108	111
[28]	-4.8	-2.24	30.3	101	102

NC1(c2ccc(-c3nc4ccn5c(=O)[nH]nc5c4cc3-c3ccccc3)cc2)CCC1 [MK-2206] (max concentration tested 1000 nM)
Details	drug sensitivity score
[1]	5.95
[15]	3.29
[16]	8.28
[17]	1.47
[18]	2.88
[19]	0
[20]	0.23
[21]	1.31
[22]	0
[23]	0
[24]	0.95
[25]	0.39
[26]	1.8
[27]	4.95

percent inhibition of viability [%]
Details	0.1 nM	1 nM	10 nM	100 nM	1000 nM
[2]	11.9	-0.15	13.2	11.8	43
[3]	-1.61	2.78	9.98	34.8	76
[4]	-11.3	-6.35	-0.77	8.45	19.7
[5]	-7.56	2.73	8.98	12.9	34.8
[6]	-12.3	-6.86	-5.82	11.8	4.37
[7]	-0.27	8.2	6.87	6.05	14.9
[8]	-0.91	-7.29	2.37	6.7	21.3
[9]	-4.35	-1.09	-0.11	-1.78	9.7
[10]	-0.31	-0.89	5.71	2.26	10.1
[11]	-2.51	-8.62	3.89	0.46	24.3
[12]	2	1.38	5.87	2.52	14.5
[13]	0.47	-1.02	11.1	11.8	17.4
[14]	-0.6	-11	14.7	21.1	42.8
[28]	-2.31	2.49	7.6	28.5	45.6

Reference: the supplement of paper PMC5908809
